Patent publication US6498181B1, “Synergistic tumorcidal response induced by histamine” (Maxim Pharmaceuticals, priority 1999, dated 2002)
Where two headings read alike, the source gives them in different places.

How the values were obtained:
prostate tumor [1] = conditions: histamine s.c. 0.5-2.0 mg per day one week before surgery, blood histamine kept at at least about 0.2 μM after
Method: Accordingly, a pharmaceutically acceptable form of histamine in a sterile carrier solution is injected subcutaneously into a patient suffering from prostate cancer for one week (0.5-2.0 mg per day) prior to surgery.
Once the tumor is removed, circulating levels of blood histamine are maintained at at least about 0.2 μM until a complete response is observed. The tumorcidal response is evaluated by determining the level of PSA antigen in the patient over time according to conventional methods.

melanoma = conditions: histamine s.c. 0.5-1.0 mg per injection 1-2 times per day with vaccine of killed mixture of three melanomic cell lines
Excerpt: (Quak and van Dongen, Eur. Arch. Otorhinolaryngol 251:1-5(1994)).

prostate tumor [2] = conditions: histamine s.c. 0.5-2.0 mg per day one week before external beam radiation (60-70 Gy), continued after
Method: The tumorcidal response is evaluated by determining the level of PSA antigen in the patient over time according to conventional methods.

[3] = tested on: human SK-N-SH neuroblastoma xenografts; conditions: histamine 0.5 mg per day tail vein with 10 μCi 131I labeled BW575/9 mAb, versus BW575/9 by itself
[4] = Method: Five patients suffering from acute myleogenous leukemia (AML) in remission received treatment with histamine dihydrochloride diluted in sterile sodium chloride. Histamine was administered morning and night at separate subcutaneous injection sites over a period of 21 consecutive days. The histamine was given as subcutaneous injections using 1 ml syringes containing […] of histamine per ml. The histamine treatment was given twice daily (morning and night) at a dosage of 0.4 to 0.7 mg histamine per injection (i.e., a daily total dose of histamine of 0.8 to 1.4 mg per day).
Peripheral blood venous samples were drawn in 10 ml heparinized test tubes before the onset of treatment and weekly thereafter. The samples were drawn at least 8 hours after the last injections of histamine. The concentration of histamine in the whole blood samples was analyzed by the use of a double antibody radioimmunoassay kit obtained from Bionerica, Inc., Newport Beach, Calif. 92663 (catalog number 1051). The manufacturer's instructions provided with the kit, dated June, 1989, were followed. Blood histamine levels were measured at the indicated times.

breast cancer = conditions: histamine s.c. 0.5-1.0 mg per injection 1-2 times per day with humanized 131I labeled p185^HER-2 antibody
Method: Accordingly, a pharmaceutically acceptable form of histamine in a sterile carrier solution is injected subcutaneously into the patient for one week (0.5-1.0 mg per injection 1-2 times per day) prior to antibody therapy.
The tumorcidal response is evaluated by determining the level of p185^HER-2 receptor in the patient over time according to conventional methods. (Quak and van Dongen, Eur. Arch. Otorhinolaryngol 251:1-5(1994)).

[5] = Effect of duration of histamine administration on efficacy and side effects; conditions: administered over less than 1 to 3 minutes; anaphalaxis, heart failure, broncospasm, flushing, headache etc.
[6] = tested on: follicular non-Hodgkins lymphoma; conditions: cited from earlier work

| Compound | tumorcidal response (PSA antigen level over time) (prostate tumor [1]) | tumorcidal response (presence of melanoma over time) (melanoma) | tumorcidal response (PSA antigen level over time) (prostate tumor [2]) | tumorcidal response [3] | persistence of circulating blood histamine levels ([4]; even after histamine administration was discontinued) | circulating blood histamine concentration following histamine administration ([4]; five AML patients in remission, s.c. 0.4 to 0.7 mg per injection twice daily, 21 days, samples at least 8 hours after last injection, less than 0.2 μM at start) | tumorcidal response (p185^HER-2 receptor level over time) (breast cancer) | side effects on rapid administration [5] | treatment outcome in clinical trials [6] |
| --- | --- | --- | --- | --- | --- | --- | --- | --- | --- |
| NCCc1c[nH]cn1 [histamine] | synergistic tumorcidal response is observed | synergistic tumorcidal response is observed | synergistic tumorcidal response is observed | greater tumorcidal response | remained elevated for sustained periods of time | at least 0.2 μM | synergistic tumorcidal response is observed | more pronounced and serious sides effects | – |
| ^131I labeled anti-B1 (Bexxar) mAb: 131I radiolabeled mAb raised to the CD-20 antigens expressed on the surface of mature B-cells | – | – | – | – | – | – | – | – | successful in treating follicular non-Hodgkins lymphoma |
